One block for each compound: values may come before it.
Assays:
[1] = test system: Caco2 monolayers; assay: In vitro transport study across 21‐day Caco2 monolayers; assay type: in vitro ADME, human; conditions: Caco2 model, VL 50 μM dosed (VLS formed as metabolite), controls 10 μM, N = 4; for P app A–B (mean ± SD): absorptive direction; for P app B–A (mean ± SD): secretory direction
Description: (§1) Caco2 cells between passage numbers 42–50 and MDCK cells between passage numbers 21–26 were used for transport studies; the assay was conducted as reported by Volpe^[ [33] ^] with slight modifications. Transport experiments were performed in 12‐well Transwell plates. Caco2 cells were seeded at a density of 60,000 cells/cm^2 and grown for 21 days, with change of media every 3 days, while MDCK cells were seeded at a density of 70,000 cells/cm^2 and grown for 5 days, changing the medium daily. The physiological and morphological formation of a confluent monolayer was evaluated by measuring the TEER value: Caco2 monolayers became confluent 1 week after seeding with TEER values greater than 450 Ω/cm^2, while MDCK monolayers became confluent 24 h after seeding with TEER values greater than 90 Ω/cm^2. Phenol red and serum‐free DMEM/F12 medium was used as transport buffer. For bidirectional transport, VL (50 μM) and control compound (propranolol and paclitaxel, 10 μM) were added to the apical side to determine apical to basolateral transport (A–B; absorptive direction) and to the basal side to determine basolateral to apical transport (B–A; secretory direction). The volume of the apical and basolateral chambers was 0.5 and 1.5 mL, respectively. Aliquots of 120 μL were taken from the basolateral (for A–B transport) or the apical (for B–A transport) chamber at 30, 60, 90, and 120 min. An equal volume was replaced with a transport buffer at every time point. At the beginning and at the end of the experiment, an aliquot was also taken from the apical or basolateral chamber for analysis of the drug. To determine the integrity of monolayers, TEER values were measured before and after the experiment. In addition, at the end of the experiment cells were collected and lysed to evaluate the compound intake. Briefly, cells were washed twice with cold PBS and 200 µL of cold MeOH was added to detach and lysate the cells; subsequently, cells were collected into lo‐bind Eppendorf and sonicated in ice for 10 min, then centrifuged for 15 min at 4°C at 14,000 rpm (Eppendorf Centrifuge 5430 R). The supernatant was collected and used for further analysis.
(§2) The apparent permeability P app (cm/s) of compounds was calculated from the following equation (Equation 1), while P app (cm/s) of the metabolites was calculated from the equation (Equation 2): (1) Papp=dQ/dt×1/C×1/A.
(§3) Equation (1) for calculating P app (cm/s) of tested reference compounds. (2) Papp=Metabolic cleareance/A.
(§4) Equation (2) for calculating P app (cm/s) of compound metabolites.
(§5) with Metabolic cleareance=Rate of metabolism/C and where dQ/dt is the rate of transport, C is the initial concentration in the donor compartment, and A is the surface area of the filter. To quantify the rate of transport, cumulative amounts of test compounds were plotted against time (min).
(§6) Efflux ratio was calculated using the following equation (Equation 3)^[ [48] ^]: (3) Efflux ratio=Papp(B−A)/Papp(A−B).

[2] = as above; assay type: in vitro ADME, human; conditions: human, Caco-2, Caco2 model, N = 4; for Papp A→B at 120 min: absorptive direction, read-out: P app A–B (mean ± SD); for Papp A→B at 120 min / Papp B→A at 120 min: VL 50 μM dosed (VLS formed as metabolite), controls 10 μM; for Papp B→A at 120 min: secretory direction, read-out: P app B–A (mean ± SD); for efflux ratio at 120 min: Papp(B−A)/Papp(A−B), read-out: Efflux ratio (mean ± SD)
Description: as §1, §2, §3, §4, §5, §6

[3] = test system: Wt‐MDCK monolayers; assay: In vitro transport study across 5‐day Wt‐MDCK monolayers; assay type: in vitro ADME, canine; conditions: Wt‐MDCK model, VL 50 μM dosed (VLS formed as metabolite), controls 10 μM, N = 4; for P app A–B (mean ± SD): absorptive direction; for P app B–A (mean ± SD): secretory direction
Description: as §1, §2, §3, §4, §5, §6

[4] = as above; assay type: in vitro ADME, canine; conditions: dog, Wt‐MDCK model, N = 4; for Papp A→B at 120 min: absorptive direction, read-out: P app A–B (mean ± SD); for Papp A→B at 120 min / Papp B→A at 120 min: VL 50 μM dosed (VLS formed as metabolite), controls 10 μM; for Papp B→A at 120 min: secretory direction, read-out: P app B–A (mean ± SD); for efflux ratio at 120 min: Papp(B−A)/Papp(A−B), read-out: Efflux ratio (mean ± SD)
Description: as §1, §2, §3, §4, §5, §6

[5] = test system: HepG2 cells; assay: MTT cell viability assay; assay type: cell-based, human; conditions: HepG2, 20 μM, data not shown
Description: (§7) The effect of test samples on cell viability was measured using an MTT assay. Briefly, exponentially growing 2 × 10^4 cells/200 μL were seeded in 96‐well plates and allowed to grow until reaching their differentiation state. Cells were treated with different concentrations of VL (50–1.6 µM) and positive control camptothecin (30–1 μM) serially diluted in serum‐free medium. After incubation, 10 μL of MTT dye (5 mg/mL stock in PBS) was added to each well, and plates were additionally incubated for 4 h. Further, media were aspirated, and cells were washed with 100 μL of phosphate buffer saline. The formazan blue crystals formed by viable cells were dissolved in 150 μL of DMSO, and the absorbance was measured at 580 nm on a Bio‐Tek, Synergy HT Multi‐Mode, plate reader. The % decrease in viability of sample‐treated cells was calculated compared with vehicle‐treated cells.^[ [46] ^]

[6] = test system: Caco2 cells; assay: MTT cell viability assay; assay type: cell-based, human; conditions: Caco2, 20 μM, data not shown
Description: as §7

[7] = test system: LS174T cells; assay: MTT cell viability assay; assay type: cell-based, human; conditions: 20 μM, data not shown
Description: as §7

[8] = test system: Wt‐MDCK cells; assay: MTT cell viability assay; assay type: cell-based, canine; conditions: 20 μM, data not shown
Description: as §7

[9] = parameters: method as in earlier work; conditions: healthy subjects, ref 43 (Di Pede et al.), cited from earlier work; for Cmax: human plasma, after PACs intake, read-out: C MAX (mean ± SD) in plasma; for average urinary excretion (% of ingested dose): human urine
[10] = test system: P‐gp; assay: Rhodamine‐123 uptake assay, induction (48 h), differentiated Caco2 cells; assay type: cell-based, human; conditions: 10 µM, 48 h treatment; 0.1% DMSO vehicle control = 100%
Description: P‐gp modulation was determined in differentiated Caco2 cells by Rh‐123 uptake assay.^[ [49] ^] In brief, cells in the logarithmic growth phase with 70%–80% confluency were harvested and seeded at a density of 2 × 10^4/well of a 96‐well plate. Cells were allowed to grow for 21 days in a CO2 incubator changing the medium every other day.
After treatment, cells were washed with Hank's buffer and 200 μL of phenol, and serum‐free DMEM/F12 medium containing […] of Rh‐123 was added and cells were incubated for 90 min. The final steps were as described previously.

[11] = biological target: T1, PXR (Homo sapiens, UniProt O75469); assay type: cell-based; parameters: expressed in transfected cells; host or cells: HepG2 and LS174T cells, transient electroporation; conditions: HepG2 cells, 10 µM
T1 sequence (O75469 1-434): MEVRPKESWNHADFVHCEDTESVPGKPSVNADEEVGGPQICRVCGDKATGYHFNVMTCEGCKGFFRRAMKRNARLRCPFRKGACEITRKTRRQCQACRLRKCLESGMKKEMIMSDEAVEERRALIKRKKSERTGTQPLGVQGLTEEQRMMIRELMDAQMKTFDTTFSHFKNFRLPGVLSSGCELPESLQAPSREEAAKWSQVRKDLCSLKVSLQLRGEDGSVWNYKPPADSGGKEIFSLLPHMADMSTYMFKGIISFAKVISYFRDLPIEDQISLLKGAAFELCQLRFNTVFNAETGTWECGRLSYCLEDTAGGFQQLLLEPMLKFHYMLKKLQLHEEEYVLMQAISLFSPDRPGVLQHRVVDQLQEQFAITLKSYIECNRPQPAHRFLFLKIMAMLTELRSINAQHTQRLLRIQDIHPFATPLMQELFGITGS
Description: The PXR activation potential of VL was determined in transiently transfected HepG2 and LS174T cells as described earlier.^[ [50] ^] In brief, 24‐h‐old cells having 70%−80% confluency were trypsinized and transfected with pSG5‐hPXR (25 μg) and PCR‐5 (25 μg) plasmid DNA by electroporation at 180 V (1 pulse for 70 ms). Cells were incubated at room temperature for 8 min and floating dead cells were carefully removed. Cells were seeded in 96‐well plates at a density of 50,000 cells/well. […] Following 24 h of incubation, the culture medium was aspirated and 40 μL of luciferase reagent (Promega Corporation) was added to each well. Luminescence was measured using a Spectramax M5 plate reader (Molecular Devices) and the fold increase in luciferase activity among sample‐treated cells was calculated in comparison with the vehicle‐treated (DMSO) cells.

P app A–B (mean ± SD) [1]: 15.39 ×10⁻⁶ cm/s
P app B–A (mean ± SD) [1]: 12.96 ×10⁻⁶ cm/s
Papp A→B at 120 min [2]: 15.4 ×10⁻⁶ cm/s
Papp B→A at 120 min [2]: 13 ×10⁻⁶ cm/s
efflux ratio at 120 min [2]: 0.859 ± 0.085
P app A–B (mean ± SD) [3]: 10.05 ×10⁻⁶ cm/s
P app B–A (mean ± SD) [3]: 5.364 ×10⁻⁶ cm/s
Papp A→B at 120 min [4]: 10.1 ×10⁻⁶ cm/s
Papp B→A at 120 min [4]: 5.36 ×10⁻⁶ cm/s
efflux ratio at 120 min [4]: 0.535 ± 0.058
SMILES: CC(C)NCC(O)COc1cccc2ccccc12 (stereo not shown) [Propranolol]

SMILES: CC[C@@]1(O)C(=O)OCc2c1cc1n(c2=O)Cc2cc3ccccc3nc2-1 [camptothecin]
effect on cell viability [5]: dramatically reduced the viability
effect on cell viability [6]: dramatically reduced the viability
effect on cell viability [7]: dramatically reduced the viability
effect on cell viability [8]: dramatically reduced the viability

SMILES: O=C1CC[C@H](Cc2ccc(OS(=O)(=O)O)c(O)c2)O1 [3ʹ‐OH‐PVL‐4ʹ‐sulfate]
Cmax [9]: 368 ± 156 nM
average urinary excretion (% of ingested dose) [9]: 11.3% ± 14.8%

SMILES: O=C1CC[C@H](Cc2ccc(O)c(OC3OC(C(=O)O)C(O)C(O)C3O)c2)O1 (stereo partly shown) [4ʹ‐OH‐PVL‐3ʹ‐glucuronide]
Cmax [9]: 229 ± 345 nM
average urinary excretion (% of ingested dose) [9]: 3.1% ± 3.3%

SMILES: CO[C@H]1/C=C/O[C@@]2(C)Oc3c(C)c(O)c4c(O)c(c(/C=N/N5CCN(C)CC5)c(O)c4c3C2=O)NC(=O)/C(C)=C\C=C\[C@H](C)[C@H](O)[C@@H](C)[C@@H](O)[C@@H](C)[C@H](OC(C)=O)[C@@H]1C [RIF, rifampicin, reference compound]
intracellular accumulation of Rh‐123 [10]: 75%
PXR activation [11]: 3.4 folds

SMILES: COc1cccc2c1C(=O)c1c(O)c3c(c(O)c1C2=O)C[C@@](O)(C(=O)CO)C[C@@H]3O[C@H]1C[C@H](N)[C@H](O)[C@H](C)O1 [doxorubicin]
effect on cell viability [5]: dramatically reduced the viability
effect on cell viability [6]: dramatically reduced the viability
effect on cell viability [7]: dramatically reduced the viability
effect on cell viability [8]: dramatically reduced the viability

P app A–B (mean ± SD) [1]: 1.202 ×10⁻⁶ cm/s
P app B–A (mean ± SD) [1]: 3.421 ×10⁻⁶ cm/s
Papp A→B at 120 min [2]: 1.2 ×10⁻⁶ cm/s
Papp B→A at 120 min [2]: 3.42 ×10⁻⁶ cm/s
efflux ratio at 120 min [2]: 2.54 ± 2.06
P app A–B (mean ± SD) [3]: 5.183 ×10⁻⁶ cm/s
P app B–A (mean ± SD) [3]: 2.952 ×10⁻⁶ cm/s
Papp A→B at 120 min [4]: 5.18 ×10⁻⁶ cm/s
Papp B→A at 120 min [4]: 2.95 ×10⁻⁶ cm/s
efflux ratio at 120 min [4]: 0.55 ± 0.089
SMILES: CC(=O)O[C@H]1C(=O)[C@@]2(C)[C@H]([C@H](OC(=O)c3ccccc3)[C@]3(O)C[C@H](OC(=O)[C@H](O)[C@@H](NC(=O)c4ccccc4)c4ccccc4)C(C)=C1C3(C)C)[C@]1(OC(C)=O)CO[C@@H]1C[C@@H]2O [Paclitaxel]

— PMC11726150, “Pre‐ADMET studies of 5‐(3′,4′‐dihydroxyphenyl)‐γ‐valerolactone, the bioactive intestinal metabolite of proanthocyanidins” (Archiv Der Pharmazie, 2024)
